Assay results reported in PMC12406203 (Journal of Medicinal Chemistry, 2025).

What was measured:
Assay in all cases: KINOMEscan
Format in all cases: binding
AURKB = target: T1, AURKB (Homo sapiens, UniProt Q96GD4)
T1 construct: purchased Eurofins DiscoverX, LLC; host or cells: E. coli BL21-derived (T7 phage) or HEK-293
Protocol: (§1) The kinase inhibition profile of compounds 94 and 95 was assessed against 103 protein kinases by Eurofins DiscoverX, LLC., using the KINOMEscan assay. Kinase-tagged T7 phage strains were grown in parallel in 24-well blocks in an E. coli host derived from the BL21 strain. E. coli were grown to log-phase and infected with T7 phage from a frozen stock (multiplicity of infection = 0.4) and incubated with shaking at 32 °C until lysis (90–150 min). The lysates were centrifuged (6000g) and filtered (0.2 μm) to remove cell debris. The remaining kinases were produced in HEK-293 cells and subsequently tagged with DNA for qPCR detection. […] The liganded beads were blocked with excess biotin and washed with blocking buffer (SeaBlock (Pierce), 1% BSA, 0.05% Tween 20, 1 mM DTT) to remove unbound ligand and to reduce nonspecific phage binding. […] Test compounds were prepared as 100× stocks in 100% DMSO and directly diluted into the assay. All reactions were performed in polypropylene 384-well plates in a final volume of 0.02 mL. […] The kinase concentration in the eluates was measured by qPCR.
(§2) The compound(s) were screened at the concentration(s) requested, and results for primary screen binding interactions are reported as RA (%), where lower numbers indicate stronger hits in the matrix. RA=(testcompoundsignal−PCsignal/NCsignal−PCsignal)×100

EPHA2 = target: T2, EPHA2 (Homo sapiens, UniProt P29317)
T2 construct: purchased Eurofins DiscoverX, LLC; host or cells: E. coli (T7 phage) or HEK-293
T2 sequence (P29317 24-976): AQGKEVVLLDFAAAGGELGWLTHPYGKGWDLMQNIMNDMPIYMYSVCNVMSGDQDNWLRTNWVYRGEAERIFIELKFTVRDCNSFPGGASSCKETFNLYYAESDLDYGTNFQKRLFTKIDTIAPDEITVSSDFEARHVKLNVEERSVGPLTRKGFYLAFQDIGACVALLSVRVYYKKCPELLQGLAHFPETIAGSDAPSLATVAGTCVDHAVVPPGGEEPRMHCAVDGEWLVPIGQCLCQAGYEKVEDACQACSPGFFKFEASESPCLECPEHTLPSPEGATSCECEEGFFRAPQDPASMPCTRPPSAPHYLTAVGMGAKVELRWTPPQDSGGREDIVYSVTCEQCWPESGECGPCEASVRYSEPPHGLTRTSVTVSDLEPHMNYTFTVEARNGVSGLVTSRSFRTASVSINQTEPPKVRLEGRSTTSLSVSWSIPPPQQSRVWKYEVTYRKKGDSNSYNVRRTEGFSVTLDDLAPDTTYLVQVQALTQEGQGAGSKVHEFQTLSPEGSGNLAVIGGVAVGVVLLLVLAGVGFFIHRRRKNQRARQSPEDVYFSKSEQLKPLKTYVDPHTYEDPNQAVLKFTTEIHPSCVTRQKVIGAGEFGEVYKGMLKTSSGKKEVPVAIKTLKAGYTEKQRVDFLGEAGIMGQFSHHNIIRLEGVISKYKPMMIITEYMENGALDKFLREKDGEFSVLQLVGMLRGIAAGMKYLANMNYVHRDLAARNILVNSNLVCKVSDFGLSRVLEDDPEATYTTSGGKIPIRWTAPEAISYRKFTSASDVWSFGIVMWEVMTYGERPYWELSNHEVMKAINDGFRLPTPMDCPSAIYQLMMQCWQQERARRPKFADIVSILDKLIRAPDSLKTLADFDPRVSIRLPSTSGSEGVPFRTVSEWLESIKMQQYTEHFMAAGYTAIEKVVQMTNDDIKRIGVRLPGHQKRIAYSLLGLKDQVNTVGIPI
Protocol: as §1, §2

DCAMKL1 = target: T3, DCAMKL1 (Homo sapiens, UniProt O15075)
T3 construct: purchased Eurofins DiscoverX, LLC; host or cells: E. coli (T7 phage) or HEK-293
T3 sequence (O15075 1-740): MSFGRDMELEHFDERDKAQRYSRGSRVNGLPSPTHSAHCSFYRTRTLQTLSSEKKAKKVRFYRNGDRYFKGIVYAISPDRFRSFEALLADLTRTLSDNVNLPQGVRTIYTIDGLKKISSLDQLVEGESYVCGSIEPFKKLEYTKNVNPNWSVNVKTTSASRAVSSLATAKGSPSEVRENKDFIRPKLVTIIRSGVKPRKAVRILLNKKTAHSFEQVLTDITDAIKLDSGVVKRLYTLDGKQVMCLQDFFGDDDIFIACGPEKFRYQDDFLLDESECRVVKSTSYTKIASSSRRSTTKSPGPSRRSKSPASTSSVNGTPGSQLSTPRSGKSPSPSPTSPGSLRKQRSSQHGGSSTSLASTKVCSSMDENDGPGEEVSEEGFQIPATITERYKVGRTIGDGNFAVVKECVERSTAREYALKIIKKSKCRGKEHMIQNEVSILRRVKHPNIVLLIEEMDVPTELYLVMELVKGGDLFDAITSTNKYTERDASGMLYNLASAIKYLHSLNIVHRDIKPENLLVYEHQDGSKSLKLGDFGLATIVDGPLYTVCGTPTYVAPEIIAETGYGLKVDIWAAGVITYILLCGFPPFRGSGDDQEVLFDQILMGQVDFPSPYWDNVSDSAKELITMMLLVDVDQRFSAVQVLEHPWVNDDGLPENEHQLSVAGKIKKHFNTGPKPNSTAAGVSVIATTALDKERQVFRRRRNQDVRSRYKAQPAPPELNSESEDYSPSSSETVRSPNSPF
Protocol: as §1, §2

PAK1 = target: T4, PAK1 (Homo sapiens, UniProt Q13153)
T4 construct: purchased Eurofins DiscoverX, LLC; host or cells: E. coli (BL21-derived, T7 phage) or HEK-293
Protocol: as §1, §2

ABL1-phosphorylated = target: T5, ABL1-phosphorylated (Homo sapiens, UniProt P00519)
T5 construct: purchased Eurofins DiscoverX, LLC; host or cells: E. coli BL21-derived (T7 phage) or HEK-293
T5 sequence (P00519 whole entry): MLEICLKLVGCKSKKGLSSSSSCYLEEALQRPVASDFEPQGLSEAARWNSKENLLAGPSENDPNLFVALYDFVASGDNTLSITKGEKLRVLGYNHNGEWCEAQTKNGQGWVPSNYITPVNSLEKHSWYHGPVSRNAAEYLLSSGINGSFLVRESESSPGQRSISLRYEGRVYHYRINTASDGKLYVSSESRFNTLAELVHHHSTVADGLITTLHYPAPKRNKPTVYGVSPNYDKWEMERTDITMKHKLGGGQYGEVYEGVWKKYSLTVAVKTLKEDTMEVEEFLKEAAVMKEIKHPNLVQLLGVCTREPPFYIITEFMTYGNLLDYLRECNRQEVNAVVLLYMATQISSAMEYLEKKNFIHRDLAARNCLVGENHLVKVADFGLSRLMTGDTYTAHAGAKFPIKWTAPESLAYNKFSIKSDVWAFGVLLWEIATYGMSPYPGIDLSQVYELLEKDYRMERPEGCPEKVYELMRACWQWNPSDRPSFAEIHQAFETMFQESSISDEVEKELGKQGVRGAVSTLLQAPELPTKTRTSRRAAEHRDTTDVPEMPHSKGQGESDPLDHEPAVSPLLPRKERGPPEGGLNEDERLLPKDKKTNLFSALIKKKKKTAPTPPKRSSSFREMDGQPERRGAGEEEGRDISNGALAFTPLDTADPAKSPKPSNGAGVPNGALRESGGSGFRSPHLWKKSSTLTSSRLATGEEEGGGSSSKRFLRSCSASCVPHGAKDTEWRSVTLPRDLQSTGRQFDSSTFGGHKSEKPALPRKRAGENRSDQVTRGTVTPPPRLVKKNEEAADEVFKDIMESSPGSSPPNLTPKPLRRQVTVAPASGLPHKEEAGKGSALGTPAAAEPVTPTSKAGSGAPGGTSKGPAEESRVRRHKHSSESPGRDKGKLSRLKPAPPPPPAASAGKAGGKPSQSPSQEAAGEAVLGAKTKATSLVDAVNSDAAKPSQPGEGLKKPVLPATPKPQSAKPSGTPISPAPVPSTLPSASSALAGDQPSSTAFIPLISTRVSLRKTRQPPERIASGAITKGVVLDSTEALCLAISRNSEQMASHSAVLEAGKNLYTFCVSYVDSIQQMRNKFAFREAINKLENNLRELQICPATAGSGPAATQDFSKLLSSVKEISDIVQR
Protocol: as §1, §2

TIE2 = target: T6, TIE2 (Homo sapiens, UniProt Q02763)
T6 construct: purchased Eurofins DiscoverX, LLC; host or cells: E. coli BL21-derived host (T7 phage) or HEK-293
T6 sequence (Q02763 23-1124): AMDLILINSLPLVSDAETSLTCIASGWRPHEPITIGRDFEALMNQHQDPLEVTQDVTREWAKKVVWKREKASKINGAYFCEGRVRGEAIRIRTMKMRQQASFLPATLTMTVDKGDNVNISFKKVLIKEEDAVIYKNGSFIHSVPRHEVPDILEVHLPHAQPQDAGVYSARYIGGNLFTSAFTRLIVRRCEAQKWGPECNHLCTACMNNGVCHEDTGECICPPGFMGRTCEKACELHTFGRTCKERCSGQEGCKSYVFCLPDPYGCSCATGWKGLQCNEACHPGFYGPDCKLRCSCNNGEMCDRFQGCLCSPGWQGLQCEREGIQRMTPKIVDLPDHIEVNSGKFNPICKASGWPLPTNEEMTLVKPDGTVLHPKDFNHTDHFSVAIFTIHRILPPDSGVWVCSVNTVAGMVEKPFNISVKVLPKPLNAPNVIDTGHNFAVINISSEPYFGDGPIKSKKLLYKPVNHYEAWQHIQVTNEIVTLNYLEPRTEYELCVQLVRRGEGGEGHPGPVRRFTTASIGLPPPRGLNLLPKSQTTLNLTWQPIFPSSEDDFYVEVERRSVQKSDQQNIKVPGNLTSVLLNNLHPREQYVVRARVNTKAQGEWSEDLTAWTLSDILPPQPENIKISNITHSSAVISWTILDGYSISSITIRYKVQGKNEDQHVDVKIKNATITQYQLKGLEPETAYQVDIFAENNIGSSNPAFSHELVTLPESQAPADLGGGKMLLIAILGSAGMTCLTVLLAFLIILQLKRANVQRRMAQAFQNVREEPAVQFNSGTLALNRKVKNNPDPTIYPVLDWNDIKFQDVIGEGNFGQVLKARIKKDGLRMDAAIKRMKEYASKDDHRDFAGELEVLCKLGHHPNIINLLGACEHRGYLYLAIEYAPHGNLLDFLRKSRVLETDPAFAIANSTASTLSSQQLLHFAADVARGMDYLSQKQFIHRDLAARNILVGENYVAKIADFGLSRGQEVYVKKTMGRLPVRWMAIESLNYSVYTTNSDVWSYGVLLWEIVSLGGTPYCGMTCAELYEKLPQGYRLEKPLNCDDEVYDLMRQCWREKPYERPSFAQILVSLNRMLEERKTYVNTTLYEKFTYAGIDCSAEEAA
Protocol: as §1, §2

CSNK1G2 = target: T7, CSNK1G2 (Homo sapiens, UniProt P78368)
T7 construct: purchased Eurofins DiscoverX, LLC; host or cells: E. coli (T7 phage) or HEK-293
T7 sequence (P78368 whole entry): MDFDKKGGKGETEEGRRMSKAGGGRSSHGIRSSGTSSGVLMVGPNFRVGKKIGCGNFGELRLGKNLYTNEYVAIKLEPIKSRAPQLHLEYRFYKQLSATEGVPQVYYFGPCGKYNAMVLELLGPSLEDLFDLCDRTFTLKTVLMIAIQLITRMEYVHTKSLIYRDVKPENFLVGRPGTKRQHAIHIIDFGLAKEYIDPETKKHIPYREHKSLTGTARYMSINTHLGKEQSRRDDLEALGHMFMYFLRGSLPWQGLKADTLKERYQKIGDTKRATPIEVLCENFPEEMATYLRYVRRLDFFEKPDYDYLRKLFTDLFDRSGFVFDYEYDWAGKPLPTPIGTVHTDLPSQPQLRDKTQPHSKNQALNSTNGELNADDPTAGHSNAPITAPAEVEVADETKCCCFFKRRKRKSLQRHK
Protocol: as §1, §2

PLK1 = target: T8, PLK1 (Homo sapiens, UniProt P53350)
T8 construct: purchased Eurofins DiscoverX, LLC; host or cells: E. coli BL21-derived host (T7 phage) or HEK-293
T8 sequence (P53350 whole entry): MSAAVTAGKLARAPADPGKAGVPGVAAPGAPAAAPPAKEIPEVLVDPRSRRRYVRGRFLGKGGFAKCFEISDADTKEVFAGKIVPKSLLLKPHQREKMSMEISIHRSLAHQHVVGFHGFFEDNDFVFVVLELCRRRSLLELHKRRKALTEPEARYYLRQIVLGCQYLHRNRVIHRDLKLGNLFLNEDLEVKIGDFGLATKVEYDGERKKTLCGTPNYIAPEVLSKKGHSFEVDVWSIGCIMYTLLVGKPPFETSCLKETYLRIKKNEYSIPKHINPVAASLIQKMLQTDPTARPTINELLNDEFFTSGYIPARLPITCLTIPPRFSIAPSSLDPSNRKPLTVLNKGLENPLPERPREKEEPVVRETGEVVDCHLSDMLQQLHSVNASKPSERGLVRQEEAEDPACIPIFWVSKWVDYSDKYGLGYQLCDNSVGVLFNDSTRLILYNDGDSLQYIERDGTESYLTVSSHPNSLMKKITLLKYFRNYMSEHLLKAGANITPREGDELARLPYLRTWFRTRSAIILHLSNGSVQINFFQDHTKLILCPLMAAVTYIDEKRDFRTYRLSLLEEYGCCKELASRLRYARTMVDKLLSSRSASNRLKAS
Protocol: as §1, §2

AXL = target: T9, AXL (Homo sapiens, UniProt P30530)
T9 construct: purchased Eurofins DiscoverX, LLC; host or cells: E. coli BL21-derived (T7 phage) or HEK-293
T9 sequence (P30530 26-894): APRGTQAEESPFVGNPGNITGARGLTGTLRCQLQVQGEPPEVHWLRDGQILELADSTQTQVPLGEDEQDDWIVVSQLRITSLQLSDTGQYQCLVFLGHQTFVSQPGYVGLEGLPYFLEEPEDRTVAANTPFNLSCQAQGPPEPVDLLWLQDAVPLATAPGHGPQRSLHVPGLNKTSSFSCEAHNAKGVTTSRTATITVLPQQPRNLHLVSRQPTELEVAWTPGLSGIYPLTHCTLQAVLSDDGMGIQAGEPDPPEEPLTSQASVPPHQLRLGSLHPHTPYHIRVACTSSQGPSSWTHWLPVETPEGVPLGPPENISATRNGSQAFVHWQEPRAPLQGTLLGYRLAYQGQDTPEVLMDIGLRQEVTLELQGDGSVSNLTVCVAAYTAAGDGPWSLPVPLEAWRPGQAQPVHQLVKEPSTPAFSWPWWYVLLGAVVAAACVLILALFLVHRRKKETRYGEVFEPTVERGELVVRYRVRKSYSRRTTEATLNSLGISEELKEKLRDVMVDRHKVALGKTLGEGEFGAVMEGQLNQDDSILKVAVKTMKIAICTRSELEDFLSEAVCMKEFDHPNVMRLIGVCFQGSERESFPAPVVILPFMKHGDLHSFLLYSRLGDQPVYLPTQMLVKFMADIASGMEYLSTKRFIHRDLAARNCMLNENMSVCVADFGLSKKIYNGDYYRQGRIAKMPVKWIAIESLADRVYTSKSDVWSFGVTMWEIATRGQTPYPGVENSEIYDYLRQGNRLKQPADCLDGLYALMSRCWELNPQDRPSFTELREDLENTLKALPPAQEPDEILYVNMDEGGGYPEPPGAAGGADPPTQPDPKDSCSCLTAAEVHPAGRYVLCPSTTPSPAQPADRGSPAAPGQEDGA
Protocol: as §1, §2

RET = target: T10, RET (Homo sapiens, UniProt P07949)
T10 construct: purchased Eurofins DiscoverX, LLC; host or cells: E. coli BL21-derived host (T7 phage) or HEK-293
Protocol: as §1, §2

T1 sequence (Q96GD4 whole entry): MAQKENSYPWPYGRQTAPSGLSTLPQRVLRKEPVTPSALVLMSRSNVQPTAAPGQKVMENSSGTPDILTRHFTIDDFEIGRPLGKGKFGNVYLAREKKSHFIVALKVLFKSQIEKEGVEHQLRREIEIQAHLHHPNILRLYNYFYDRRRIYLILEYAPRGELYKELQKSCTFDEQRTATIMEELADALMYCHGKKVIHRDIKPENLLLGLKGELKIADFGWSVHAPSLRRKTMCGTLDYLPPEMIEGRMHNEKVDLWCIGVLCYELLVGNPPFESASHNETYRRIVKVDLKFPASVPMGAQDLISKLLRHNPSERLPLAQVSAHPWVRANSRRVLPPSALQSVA

SMILES | RA @ 1000nM (AURKB) [%] | RA @ 10000nM (AURKB) [%] | RA @ 1000nM (EPHA2) [%] | RA @ 10000nM (EPHA2) [%] | RA @ 1000nM (DCAMKL1) [%] | RA @ 10000nM (DCAMKL1) [%] | RA @ 1000nM (PAK1) [%] | RA @ 10000nM (PAK1) [%] | RA @ 1000nM (ABL1-phosphorylated) [%] | RA @ 10000nM (ABL1-phosphorylated) [%] | RA @ 1000nM (TIE2) [%] | RA @ 10000nM (TIE2) [%] | RA @ 1000nM (CSNK1G2) [%] | RA @ 10000nM (CSNK1G2) [%] | RA @ 1000nM (PLK1) [%] | RA @ 10000nM (PLK1) [%] | RA @ 1000nM (AXL) [%] | RA @ 10000nM (AXL) [%] | RA @ 1000nM (RET) [%] | RA @ 10000nM (RET) [%]
CC(C)Cn1ncc2cc(Cc3ccc(F)cc3F)c(C(=O)NCCN(C)C)cc21 [Compound 94, 5-(2,4-Difluorobenzyl)-N-(2-(dimethylamino)ethyl)-1-isobutyl-1H-indazole-6-carboxamide] | 84 | 68 | 97 | 100 | 100 | 100 | 96 | 94 | 79 | 53 | 100 | 100 | 96 | 93 | 100 | 100 | 97 | 89 | 100 | 100
CN(C)CCNC(=O)c1cc2c(cnn2CC2CCCCC2)cc1Cc1ccc(F)cc1F [Compound 95, 1-(Cyclohexylmethyl)-5-(2,4-difluorobenzyl)-N-(2-(dimethylamino)ethyl)-1H-indazole-6-carboxamide] | 99 | 71 | 100 | 100 | 100 | 100 | 100 | 93 | 81 | 85 | 90 | 100 | 100 | 98 | 100 | 100 | 84 | 83 | 100 | 100
